Source: patent US9150566B2, “2-(1,2,3-triazol-2-yl)benzamide and 3-(1,2,3-triazol-2-YL)picolinamide derivatives as orexin receptor antagonists” (ACTELION PHARMACEUTICALS LTD., priority 2011, dated 2015)
Read-outs that look alike come from different tables or passages of the source.

Key:
human orexin-1 receptor = human orexin-1 receptor (Homo sapiens (Human), UniProt O43613); assay: In vitro intracellular calcium measurements (FLIPR), antagonistic activity on orexin-1 receptor; format: cell-based; conditions: read-out: IC50 OX1
Summary of the method: (§1)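 CHO cells expressing human orexin-1 or orexin-2 receptor were seeded overnight, preincubated with antagonist for 120 min, then stimulated with agonist in a FLIPR Tetra.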

human orexin-2 receptor = human orexin-2 receptor (Homo sapiens (Human), UniProt O43614); assay: In vitro intracellular calcium measurements (FLIPR), antagonistic activity on orexin-2 receptor; format: cell-based; conditions: read-out: IC50 OX2
Summary of the method: as §1

CYP3A4 = CYP3A4 (Homo sapiens (Human), UniProt P08684); assay: CYP3A4 inhibition assay (human liver microsomes, testosterone 6β-hydroxylation); conditions: read-out: CYP3A4 IC50, 40 μM testosterone
[1] = CHO cells expressing human orexin-1 receptor, FLIPR, 3 nM orexin-A agonist, 120 min antagonist incubation, geometric mean if determined several times
[2] = CHO cells expressing human orexin-2 receptor, FLIPR, 3 nM orexin-A agonist, 120 min antagonist incubation, geometric mean if determined several times

human orexin-1 receptor, sequence (O43613 whole entry): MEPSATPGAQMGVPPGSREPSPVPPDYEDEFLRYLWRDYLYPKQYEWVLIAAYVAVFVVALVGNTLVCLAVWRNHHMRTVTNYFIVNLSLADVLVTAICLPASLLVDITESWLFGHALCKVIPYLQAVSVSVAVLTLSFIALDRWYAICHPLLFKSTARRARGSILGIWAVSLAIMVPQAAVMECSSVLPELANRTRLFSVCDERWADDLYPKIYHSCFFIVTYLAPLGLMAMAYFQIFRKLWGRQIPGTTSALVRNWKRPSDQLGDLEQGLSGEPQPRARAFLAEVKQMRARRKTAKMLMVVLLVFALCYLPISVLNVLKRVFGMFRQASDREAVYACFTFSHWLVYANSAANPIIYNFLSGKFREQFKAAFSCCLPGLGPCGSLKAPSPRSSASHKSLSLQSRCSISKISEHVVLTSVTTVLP
CYP3A4, sequence (P08684 whole entry): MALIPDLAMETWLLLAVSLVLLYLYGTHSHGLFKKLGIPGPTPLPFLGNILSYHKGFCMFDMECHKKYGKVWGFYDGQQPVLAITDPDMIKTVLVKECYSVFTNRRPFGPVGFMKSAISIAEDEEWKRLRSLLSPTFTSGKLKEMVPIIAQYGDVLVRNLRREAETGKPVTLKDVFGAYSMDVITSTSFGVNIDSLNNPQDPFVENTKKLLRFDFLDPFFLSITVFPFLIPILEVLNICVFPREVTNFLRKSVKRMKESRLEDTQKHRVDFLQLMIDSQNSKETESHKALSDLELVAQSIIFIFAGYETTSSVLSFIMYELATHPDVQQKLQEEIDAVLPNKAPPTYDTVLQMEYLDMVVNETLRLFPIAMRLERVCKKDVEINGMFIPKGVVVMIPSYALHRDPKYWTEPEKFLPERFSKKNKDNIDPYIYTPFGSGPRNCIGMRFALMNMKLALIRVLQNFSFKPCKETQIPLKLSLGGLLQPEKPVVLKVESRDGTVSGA
human orexin-2 receptor, sequence (O43614 whole entry): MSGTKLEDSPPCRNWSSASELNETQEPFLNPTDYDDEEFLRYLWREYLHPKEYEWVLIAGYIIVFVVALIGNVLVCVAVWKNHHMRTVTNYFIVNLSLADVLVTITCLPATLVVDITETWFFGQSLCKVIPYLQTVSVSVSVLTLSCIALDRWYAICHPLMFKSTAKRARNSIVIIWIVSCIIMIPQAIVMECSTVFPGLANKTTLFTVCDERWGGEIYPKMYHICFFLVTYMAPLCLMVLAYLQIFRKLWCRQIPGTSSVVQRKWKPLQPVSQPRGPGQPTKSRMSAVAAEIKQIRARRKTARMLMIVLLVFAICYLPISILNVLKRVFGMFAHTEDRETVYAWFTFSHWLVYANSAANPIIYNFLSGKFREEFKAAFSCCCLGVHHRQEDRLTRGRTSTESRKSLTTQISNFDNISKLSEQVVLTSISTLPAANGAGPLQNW

IC50 (human orexin-1 receptor; [1])	IC50 (human orexin-2 receptor; [2])	IC50 (CYP3A4)	Structure (SMILES)	IC50 (human orexin-1 receptor)	IC50 (human orexin-2 receptor)
0.013 µM	2.38 µM	6 µM	Cc1ccc(-n2nccn2)c(C(=O)N2CCOC[C@H]2Cc2cccc(-c3cccnn3)c2)c1 [Example 47, (5-Methyl-2-[1,2,3]triazol-2-yl-phenyl)-[(R)-3-(3-pyridazin-3-yl-benzyl)-morpholin-4-yl]-methanone]		
0.039 µM	4.44 µM	9.6 µM	O=C(c1ccccc1-n1nccn1)N1CCOC[C@H]1Cc1cccc(-c2cccnn2)c1 [Example 48, [(R)-3-(3-Pyridazin-3-yl-benzyl)-morpholin-4-yl]-(2-[1,2,3]triazol-2-yl-phenyl)-methanone]		
0.002 µM	0.942 µM	> 50 µM	COc1ccc(-n2nccn2)c(C(=O)N2CCOC[C@H]2Cc2cccc(-c3ncccn3)c2)c1 [Example 50, (5-Methoxy-2-[1,2,3]triazol-2-yl-phenyl)-[(R)-3-(3-pyrimidin-2-yl-benzyl)-morpholin-4-yl]-methanone]		
0.003 µM	0.229 µM	20 µM	O=C(c1cc(Cl)ccc1-n1nccn1)N1CCOC[C@H]1Cc1cccc(-c2ncccn2)c1 [Example 51, (5-Chloro-2-[1,2,3]triazol-2-yl-phenyl)-[(R)-3-(3-pyrimidin-2-yl-benzyl)-morpholin-4-yl]-methanone]		
0.043 µM	1.63 µM	> 50 µM	Cc1ccc(-n2nccn2)c(C(=O)N2CCOC[C@H]2Cc2cccc(-n3nccn3)c2)n1 [Example 52, (6-Methyl-3-[1,2,3]triazol-2-yl-pyridin-2-yl)-[(R)-3-(3-[1,2,3]triazol-2-yl-benzyl)-morpholin-4-yl]-methanone]		
0.027 µM	3.4 µM	> 50 µM	Cc1ccc(-n2nccn2)c(C(=O)N2CCOC[C@H]2Cc2cccc(-n3cccn3)c2)n1 [Example 53, (6-Methyl-3-[1,2,3]triazol-2-yl-pyridin-2-yl)-[(R)-3-(3-pyrazol-1-yl-benzyl)-morpholin-4-yl]-methanone]		
0.046 µM	1.82 µM	> 50 µM	O=C(c1cccc(F)c1-n1nccn1)N1CCOC[C@H]1Cc1cccc(-n2nccn2)c1 [Example 54, (3-Fluoro-2-[1,2,3]triazol-2-yl-phenyl)-[(R)-3-(3-[1,2,3]triazol-2-yl-benzyl)-morpholin-4-yl]-methanone]		
0.004 µM	0.837 µM	33 µM	Cc1ccc(-n2nccn2)c(C(=O)N2CCOC[C@H]2Cc2cc(-n3nccn3)ccc2F)c1 [Example 56, [(R)-3-(2-Fluoro-5-[1,2,3]triazol-2-yl-benzyl)-morpholin-4-yl]-(5-methyl-2-[1,2,3]triazol-2-yl-phenyl)-methanone]		
0.048 µM	2.74 µM	20 µM	O=C(c1ccccc1-n1nccn1)N1CCOC[C@H]1Cc1cc(-n2nccn2)ccc1F [Example 57, [(R)-3-(2-Fluoro-5-[1,2,3]triazol-2-yl-benzyl)-morpholin-4-yl]-(2-[1,2,3]triazol-2-yl-phenyl)-methanone]		
0.0007 µM	0.042 µM	42 µM	COc1ccc(C[C@@H]2COCCN2C(=O)c2cc(C)ccc2-n2nccn2)cc1-c1ncon1 [Example 58, [(R)-3-(4-Methoxy-3-[1,2,4]oxadiazol-3-yl-benzyl)-morpholin-4-yl]-(5-methyl-2-[1,2,3]triazol-2-yl-phenyl)-methanone]		
0.001 µM	0.08 µM	32 µM	COc1ccc(C[C@@H]2COCCN2C(=O)c2ccccc2-n2nccn2)cc1-c1ncon1 [Example 59, [(R)-3-(4-Methoxy-3-[1,2,4]oxadiazol-3-yl-benzyl)-morpholin-4-yl]-(2-[1,2,3]triazol-2-yl-phenyl)-methanone]		
0.0007 µM	0.034 µM	41 µM	COc1ccc(C[C@@H]2COCCN2C(=O)c2ccc(C)cc2-n2nccn2)cc1-c1ncon1 [Example 60, [(R)-3-(4-Methoxy-3-[1,2,4]oxadiazol-3-yl-benzyl)-morpholin-4-yl]-(4-methyl-2-[1,2,3]triazol-2-yl-phenyl)-methanone]		
0.001 µM	0.06 µM	42 µM	COc1ccc(C[C@@H]2COCCN2C(=O)c2ccc(F)cc2-n2nccn2)cc1-c1ncon1 [Example 61, (4-Fluoro-2-[1,2,3]triazol-2-yl-phenyl)-[(R)-3-(4-methoxy-3-[1,2,4]oxadiazol-3-yl-benzyl)-morpholin-4-yl]-methanone]		
0.002 µM	0.261 µM	22 µM	Cc1ccc(-n2nccn2)c(C(=O)N2CCOC[C@H]2Cc2ccc(C)c(-n3nccn3)c2)c1 [Example 65, [(R)-3-(4-Methyl-3-[1,2,3]triazol-2-yl-benzyl)-morpholin-4-yl]-(5-methyl-2-[1,2,3]triazol-2-yl-phenyl)-methanone]		
0.016 µM	0.992 µM	36 µM	Cc1ccc(C[C@@H]2COCCN2C(=O)c2ccccc2-n2nccn2)cc1-n1nccn1 [Example 66, [(R)-3-(4-Methyl-3-[1,2,3]triazol-2-yl-benzyl)-morpholin-4-yl]-(2-[1,2,3]triazol-2-yl-phenyl)-methanone]		
0.016 µM	1.3 µM	24 µM	C[C@@H]1COC[C@@H](Cc2cccc(-n3nccn3)c2)N1C(=O)c1ccccc1-n1nccn1 [Example 68, [(3R,5R)-3-Methyl-5-(3-[1,2,3]triazol-2-yl-benzyl)-morpholin-4-yl]-(2-[1,2,3]triazol-2-yl-phenyl)-methanone]		
0.01 µM	1.85 µM	6.8 µM	Cc1ccc(-n2nccn2)c(C(=O)N2[C@H](Cc3cccc(-n4nccn4)c3)COC[C@@H]2C)c1 [Example 73, [(3S,5R)-3-Methyl-5-(3-[1,2,3]triazol-2-yl-benzyl)-morpholin-4-yl]-(5-methyl-2-[1,2,3]triazol-2-yl-phenyl)-methanone]		
0.003 µM	0.547 µM	15 µM	Cc1cc(C)c(-n2nccn2)c(C(=O)N2CCOC[C@H]2Cc2cccc(-n3nccn3)c2)c1 [Example 75, (3,5-Dimethyl-2-[1,2,3]triazol-2-yl-phenyl)-[(R)-3-(3-[1,2,3]triazol-2-yl-benzyl)-morpholin-4-yl]-methanone]		
0.017 µM	0.528 µM	22 µM	COc1cc(C(=O)N2CCOC[C@H]2Cc2cccc(-n3nccn3)c2)c(-n2nccn2)cc1F [Example 78, (4-Fluoro-5-methoxy-2-[1,2,3]triazol-2-yl-phenyl)-[(R)-3-(3-[1,2,3]triazol-2-yl-benzyl)-morpholin-4-yl]-methanone]		

Structure (SMILES)	IC50 (human orexin-1 receptor; [1])	IC50 (human orexin-2 receptor; [2])	IC50 (CYP3A4)	IC50 (human orexin-1 receptor)	IC50 (human orexin-2 receptor)
Cc1ccc(C(=O)N2CCOC[C@H]2Cc2ccc(C)c(-n3nccn3)c2)c(-n2nccn2)c1 [Example 67, [(R)-3-(4-Methyl-3-[1,2,3]triazol-2-yl-benzyl)-morpholin-4-yl]-(4-methyl-2-[1,2,3]triazol-2-yl-phenyl)-methanone]			25 µM	0.002 µM	0.274 µM
Cc1ccc(C(=O)N2[C@H](Cc3cccc(-n4nccn4)c3)COC[C@@H]2C)c(-n2nccn2)c1 [Example 71, [(3S,5R)-3-Methyl-5-(3-[1,2,3]triazol-2-yl-benzyl)-morpholin-4-yl]-(4-methyl-2-[1,2,3]triazol-2-yl-phenyl)-methanone]			14 µM	0.035 µM	2.19 µM
